Results from patent publication US20250177351A1, “ISOINDOLINE COMPOSITIONS AND METHODS FOR TREATING NEURODEGENERATIVE DISEASE” (Cognition Therapeutics, Inc., priority 2022, published 2025).
Marks after values point to notes of the source that are not given here.

Assays:
[1] = target: T1, Sigma-2/PGRMC1 receptor complex (Homo sapiens, UniProt Q5BJF2); assay: Phase 1b/2a trial: pharmacokinetics and estimated brain receptor occupancy; assay type: in vivo; details: AD patients, 90-560 mg, day 28
T1 construct: from tissue; host or cells: brain of trial patients, in vivo (occupancy estimated from CSF drug concentration, not measured)
T1 sequence (Q5BJF2 whole entry, one chain of several): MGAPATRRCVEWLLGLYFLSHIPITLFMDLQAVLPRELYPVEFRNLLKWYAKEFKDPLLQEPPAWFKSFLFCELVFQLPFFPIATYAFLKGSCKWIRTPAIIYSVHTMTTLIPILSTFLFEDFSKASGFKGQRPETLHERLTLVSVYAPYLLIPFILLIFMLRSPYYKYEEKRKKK
Method: COG0102 clinical trial: This trial (ClinicalTrials.gov NCT02907567) was a randomized, double-blind, placebo-controlled clinical trial in mild to moderate Alzheimer's patients (MMSE 18-26) (See FIG. 1 for clinical trial design). The trial was conducted at six sites in Australia. Patients were randomized into placebo (n=5) or CT1812-treated groups: 90 mg (n=4), 280 mg (n=5) or 560 mg (n=5) and treated once daily for 28 days. Clinical chemistry was done at Sydpath (Sydney, AU). Pharmacokinetics were done at CPR Pharma Services (Adelaide, AU). Cerebrospinal fluid samples were taken at screening and day 21-28 of treatment and aliquoted. […] One set of CSF samples was analyzed for Alzheimer's disease biomarkers; protein measurements (Aβ42, Aβ40, total tau, tau phosphorylated at threonine 181 (phosphorylated tau), NFL and neurogranin) were performed using commercially available ELISA assays from Fujirebio according to the manufacturer's instructions (INNOTEST β-AMYLOID(1-42), INNOTEST β-AMYLOID(1-40), INNOTEST hTau Ag, INNOTEST PHOSPHO-TAU(181P), Uman Diagnostics NFL assay). Neurogranin was measured with a sandwich ELISA method using antibodies Ng2 and Ng22 developed at the University of Gotteborg (Kvartsberg et al. 2015). Identical aliquots of CSF, and plasma were analyzed for protein expression changes via LC/MSMS at Caprion (see below).

[2] = Phase 1 single ascending dose (SAD)/food-effect study: plasma pharmacokinetics; assay type: in vivo, human
Method: (§1) A Phase 1, two-part single and multiple ascending dose study was conducted in 7 and 4 cohorts of healthy human subjects respectively. […] In Part B, subjects were administered 280, 560, and 840 mg once daily for 14 days (8:2 A:P per cohort). An elderly cohort, age 65-75, was dosed at 560 mg once daily for 14 days (7:2 A:P). […] Cognitive testing was performed in the healthy elderly cohort at baseline and at Day 14 of treatment.
Part A was a single ascending dose cohort study in which healthy, young subjects (less than 65 years old) received one dose of study drug in the morning after an overnight fast. Cohort dosing started at 10 mg and increased to 30 mg, 90 mg, 180 mg, 450 mg, and 1120 mg in subsequent cohorts. Six drug-treated and two placebo-treated subjects were randomized in each cohort. A seventh cohort of six subjects each received a single 90 mg dose of drug 30 min. after a meal. Following completion of all safety assessments and blood draws for PK analyses, subjects were discharged on Day 3.
(§2) In Part A, blood draws for assessment of PK parameters occurred pre-dose and at 15, 30, 45, 60, and 90 minutes post dose as well as at 2, 3, 4, 8, 12, 24, 36, and 48 hours post dose. […] In Part B, blood samples for plasma PK analysis were taken on Day 1 at pre-dose and at 2 hours post-dose, on Day 3 at pre-dose and at 15, 30 and 45 minutes and 1, 2, 3, 4, 8, 12 and 24 hours post-dose, on Days 4, 6, 8 and 10 at pre-dose and at 1.5 hours post-dose and following the final dose on Day 14 at pre-dose and 15, 30 and 45 minutes and 1, 2, 4, 8, 12, 24, 36 and 48 hours post-dose.
(§3) This was assessed by analysis of variance (ANOVA) of log-transformed Cmax, AUC0-24, AUC0-48, and/or AUC0-inf, using a model with factors for treatment (fed status or age [young vs. elderly] status) and subject within sequence. Treatment mean differences and 90% confidence intervals of the log transformed PK parameters were back-transformed, to present the geometric least squares means ratios and 90% confidence limits.

[3] = Phase 1 multiple ascending dose (MAD) study: plasma pharmacokinetics; assay type: in vivo, human; design: CLss/F: unit not given here; details: for CLss/F / t1/2: MAD
Method: as §1
In Part B, healthy young subjects in each cohort received the same dose once daily for 14 days after overnight fasting. Cohort dosing started at 280 mg, followed by 560 mg and 840 mg in subsequent cohorts. In each cohort, eight subjects received drug and two received placebo. A fourth cohort of healthy elderly subjects (≥65 years old) received a 560 mg dose vs. placebo daily for 14 days (seven active, two placebo).
Subjects were dosed in the morning with 240 mL of water after an 8-hour fast, and remained in a semi-reclined position for 1 hour and fasting for 2 hours post-administration, except for the fed cohort in Part A. Subjects in each MAD cohort were confined to the clinical facility from check-in on Day 0 until the pharmacokinetic sample was collected on Day 16, 48 hours after administration of the last dose on Day 14. Subjects returned to the clinical facility for follow-up visits on Days 24 and 35.
as §2, §3

[4] = Phase 1 MAD study: cognitive testing in healthy elderly cohort; assay type: in vivo, human; details: 560 mg for 14 days (N = 7)
Method: The Alzheimer's Disease Assessment Scale-Cognition Subscale (ADAS-Cog 13) and a cognitive battery (including the category fluency test, controlled word association test, WMS-R digit span, digit symbol substitution test, and Rey Auditory Verbal Learning Test) were administered to subjects in the elderly cohort at baseline and on Day 14.

[5] = MAD 560 mg, Day 14 (steady state)
[6] = age up to 64 years, 280 mg (n = 8), Day 14, mean
[7] = age up to 64 years, 560 mg (n = 8), Day 14, mean

CC(C)(C)Oc1cc(CCC(C)(C)N2Cc3ccc(S(C)(=O)=O)cc3C2)ccc1O [CT1812]
increase of plasma concentration with dose [1]: approximately dose proportionally
exposure based on AUC, fed vs. fasted ([2]; 90 mg): no significant difference
t1/2 ([2]; SAD fasted 10 mg, Day 1, plasma, mean (n = 5)): 12.0^‡ hr
t1/2 ([2]; SAD fasted 450 mg (n = 6), plasma, mean): 12.2 h
increase of Cmax and AUC with dose ([2]; SAD, 10 mg to 1120 mg): slightly greater than dose proportionally
AUC0-48h lower under fed vs fasted conditions (geometric least-squares mean) ([2]; single 90 mg oral dose): ~20%
AUC0-inf lower under fed vs fasted conditions (geometric least-squares mean) ([2]; single 90 mg oral dose): ~20%
Cmax lower under fed vs fasted conditions (geometric least-squares mean) ([2]; single 90 mg oral dose): approximately 40%
AUC0-24h, aged cohort vs subjects under 64 years (geometric least-squares mean) ([3]; MAD 560 mg, Day 3): ~1.34 times
Cmax, aged cohort vs subjects under 64 years (geometric least-squares mean) ([3]; MAD 560 mg, Day 3): approximately 1.7 times
AUC0-24h, aged cohort vs younger subjects [3, 5]: 1.5 times
Cmax, aged cohort vs younger subjects [3, 5]: 1.6 times
increase of Cmax and AUC with dose ([3]; MAD 280 to 840 mg): slightly greater than dose proportionally
CLss/F ([3]; age at least 65 years, 560 mg (n = 7), Day 14, mean): 169^‡‡
t1/2 ([3]; age at least 65 years, 560 mg, Day 3 (n = 4), over max. 24 hours post dose): 8.83^†† hr
CLss/F [3, 6]: 387
t1/2 [3, 6]: 12.0 h
CLss/F [3, 7]: 296
t1/2 [3, 7]: 12.3 h
CLss/F ([3]; age up to 64 years, dose cell prints 560 mg (n = 7), Day 14, follows 840 mg Day 3): 212^‡‡
t1/2 ([3]; age up to 64 years, dose cell prints 560 mg (n = 7), Day 14, follows 840 mg Day 3 (n = 6)): 8.93^§ hr
accumulation in plasma ([3]; over 14 days): minimal accumulation
COWAT (Trial 2), Mean (SD) ([4]; Day 14, Day 0: 9.6 (4.2)): 10.6 (5.1)
COWAT (Trial 1), Mean (SD) ([4]; Day 14, Day 0: 11.3 (5.7)): 12.6 (4.5)
COWAT (Trial 3), Mean (SD) ([4]; Day 14, Day 0: 14.6 (5.7)): 15.1 (3.7)
RAVLT, Mean (SD) ([4]; Day 14, Day 0: 17.3 (3.9)): 18.7 (3.1)
WMS-R (Digit Span), Mean (SD) ([4]; Day 14, Day 0: 17.9 (3.3)): 17.9 (3.3)
CFT, Mean (SD) ([4]; Day 14, Day 0: 18.4 (5.5)): 19.7 (2.4)
DSST, Mean (SD) ([4]; Day 14, Day 0: 78.3 (11.0)): 80 (9.6)
